The values that follow come from US8410056B2, “Pro-oxidant anti-cancer compounds” (priority 2006, dated 2013).

In experiment [1] the test system is MDA-MB-453, MCF-7 and NeuTL breast cancer cells. The experiment can be described thus: ATP bioluminescence assay. The experiment is classed as cell-based, human; murine. The following applies: 6 or 24 h; normoxia or hypoxia. The method, then: (§1) Cell culture and treatment. […] Cells were cultured in DMEM with 10% FCS, 100 U/ml penicillin and 100 μg/ml streptomycin at 37° C. in a humidified atmosphere of 5% CO2. Mitochondrial complex I-deficient (Breen and Scheffler 1979; DeFrancesco et al 1976; Scheffler et al 2004) and complex II-deficient cells (Albayrak et al 2003; Oostveen et al 1995) were grown in DMEM with 10% FCS, […] glucose and non-essential amino acids.
(§2) At approximately 70% confluency, cells were treated with up to 50 μM α-TOS (Sigma), up to 100 μM 3-BP (Aldrich) or 30 ng/ml of human recombinant tumor necrosis factor-related apoptosis—inducing ligand (TRAIL) (Weber et al, 2002) under normoxic or hypoxic conditions. For hypoxia, cells overlaid with nitrogen-purged medium were placed in a hypoxic chamber pre-flushed extensively with nitrogen. The hypoxic chamber with cells was then placed in the incubator as required. α-TOS was dissolved in ethanol and used such that the final ethanol concentration in cell culture medium was <0.1% (v/v). Stock solutions of 3-BP were prepared in PBS prior to use.
ATP measurement. MDA-MB-453 and NeuTL cells were seeded at 2×10^5 per ml and MCF-7 cells at 1.2×10^5 per ml into 96-well tissue culture microtitre plates and allowed to recover overnight before use. Cells were incubated for 6 or 24 h with α-TOS or 3-BP under normoxia or hypoxia as described above. ATP levels were then measured using an ATP bioluminescence assay kit HSII (Roche Applied Science) according to the manufacturer's instructions. Briefly, control or treated cells were transferred into black microtitre plates after incubation for 5 min at room temperature with the cell lysis reagent. Luciferase reagent was added and the signal detected immediately using a Fluorostar Optima plate reader (BMG Labtech). Triplicate wells were read for each condition and data evaluated using a standard calibration curve prepared with known concentrations of ATP.

For experiment [2], the target named is T1, SDH/Complex II, Paracoccus denitrificans membranes (Paracoccus denitrificans, UniProt Q59659+Q59660+Q59662).
T1 construct: Membranes were prepared from harvested cells by treating with lysozyme; endogenous in cells; host or cells: membrane vesicles of P. denitrificans CCM 982 (NCIB 8944), endogenous enzyme
T1 sequence (Q59662 whole entry): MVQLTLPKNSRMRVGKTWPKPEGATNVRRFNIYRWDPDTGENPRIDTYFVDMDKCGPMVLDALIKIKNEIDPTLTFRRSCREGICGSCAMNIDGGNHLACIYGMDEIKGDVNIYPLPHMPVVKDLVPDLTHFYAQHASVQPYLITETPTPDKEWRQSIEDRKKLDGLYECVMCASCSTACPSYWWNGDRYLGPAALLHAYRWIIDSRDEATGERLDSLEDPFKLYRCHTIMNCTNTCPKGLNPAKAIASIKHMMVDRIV
T1 sequence (Q59660 whole entry): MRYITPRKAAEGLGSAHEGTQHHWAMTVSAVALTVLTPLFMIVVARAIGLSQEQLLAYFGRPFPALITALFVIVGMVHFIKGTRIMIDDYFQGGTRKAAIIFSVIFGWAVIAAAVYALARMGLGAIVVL
T1 sequence (Q59659 whole entry): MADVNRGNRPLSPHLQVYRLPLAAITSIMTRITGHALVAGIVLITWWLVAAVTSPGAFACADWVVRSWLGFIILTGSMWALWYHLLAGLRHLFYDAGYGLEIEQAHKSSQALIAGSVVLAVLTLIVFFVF
T1 sequence (Q59661 whole entry, further chain): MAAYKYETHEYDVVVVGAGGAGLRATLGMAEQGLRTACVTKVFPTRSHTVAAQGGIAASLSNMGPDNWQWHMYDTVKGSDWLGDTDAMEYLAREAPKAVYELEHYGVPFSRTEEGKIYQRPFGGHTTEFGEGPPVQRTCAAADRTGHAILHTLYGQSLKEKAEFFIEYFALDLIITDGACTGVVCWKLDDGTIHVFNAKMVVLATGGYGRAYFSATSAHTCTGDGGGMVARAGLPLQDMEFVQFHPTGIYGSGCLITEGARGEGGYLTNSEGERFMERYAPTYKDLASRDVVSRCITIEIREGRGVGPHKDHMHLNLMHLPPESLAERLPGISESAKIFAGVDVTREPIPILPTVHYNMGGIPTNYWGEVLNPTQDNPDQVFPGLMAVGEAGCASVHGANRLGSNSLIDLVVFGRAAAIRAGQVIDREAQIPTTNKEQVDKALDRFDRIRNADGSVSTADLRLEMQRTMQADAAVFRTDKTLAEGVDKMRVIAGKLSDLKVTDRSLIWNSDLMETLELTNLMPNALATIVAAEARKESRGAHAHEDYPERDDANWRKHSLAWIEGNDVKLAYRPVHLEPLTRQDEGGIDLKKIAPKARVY
The experiment can be described thus: SDH/Complex II activity, DCIP/PMS assay. The experiment is classed as biochemical. The conditions noted are these: 100 or 300 μM α-TOS; compared to control. On the procedure: Preparation of membrane vesicles from Paracoccus denitrificans. P. denitrificans CCM 982 (NCIB 8944) was grown anaerobically at 30° C. in a medium containing 50 mM succinate as the carbon source and 10 mM nitrate as the terminal acceptor. Membranes were prepared from harvested cells by treating with lysozyme according to Burnell et al (1975). After dilution in 0.1 M Na phosphate, pH 7.3, to a final protein concentration of approximately 20 mg/ml, the membranes were stored at −20° C. in 1 ml aliquots until used. The protein concentration was determined using the bicinchoninic acid method and an iEMS plate reader (Labsystem, Finland).
Measurement of mitochondrial complex II and complex I activity. A time course for the reduction of the complex II substrate 2,6-dichlorophenol indophenol (DCIP) by the mitochondrial preparations was followed by measuring the absorbance at 600 nm in 1 cm cuvettes containing a 1 ml reaction volume (ε600=21×10^3 M^−1cm^−1). The reaction components included NADH, 0.5 mM; succinate, 5 mM; KCN, 10 mM; DCIP, 50 μM; PMS, 50 μM. For each assay point, 0.5 mg sample protein was used and α-TOS was added at either 100 or 300 μM as indicated. The change in absorbance of DCIP was measured using a spectrophotometer (UVIKON XL, Secomam) and replicate samples were assayed (n=3). When measuring the complex I (NADH dehydrogenase activity), PMS was omitted. […]

Experiment [3] relates to Jurkat, HBT11, MCF7, MCF7-C3. The conditions noted are these: Birringer et al, cited from earlier work.
Another experiment relates to MCF-7 cells. The experiment can be described thus: Apoptosis, annexin V-FITC method. It counts as cell-based, human. The method, then:
as §1, §2
Apoptosis assessment. Apoptosis was quantified using the annexin V-FITC method, which detects phosphatidyl serine externalized in the early phases of apoptosis (Boersma et al, 1996). Briefly, cells were plated at 10^5 per well in 24-well plates and, after an overnight recuperation, treated with α-TOS or 3-BP alone or in combination. Floating and attached cells were harvested, washed with PBS, resuspended in 0.2 ml binding buffer (10 mM Hepes, 140 mM NaCl, 5 mM CaCl2, pH 7.4), incubated for 30 min at 4° C. with 2 μl annexin V-FITC (PharMingen), supplemented with 200 μl of 50 μg/ml propidium iodide (PI; Sigma), and analyzed by flow cytometry (FACScalibur, Becton Dickinson) using channel 1 for annexin V-FITC binding and channel 2 for PI staining. Cell death was quantified as the percentage of cells with increased annexin V binding and PI staining. […]

Experiment [4] has as its target T2, SDH/Complex II, isolated rat liver mitochondria (Rattus norvegicus, UniProt P21913+Q641Z9+Q6PCT8).
T2 construct: Rat liver mitochondria were prepared by differential centrifugation; from tissue; host or cells: rat liver mitochondria / sub-mitochondrial particles
As to the kind of experiment: SDH/Complex II activity, DCIP/PMS assay. The conditions noted are these: 100 or 300 μM α-TOS; compared to control. The experiment is classed as biochemical. The method, then:
Preparation of sub-mitochondrial particles (SMPs) from isolated rat liver. Rat liver mitochondria were prepared by differential centrifugation according to the modified method of Rice and Lindsay, 1997. 2 ml of mitochondrial pellet were resuspended in 15 ml of 20 mM KH2 PO4 pH 7.4 and sonicated at a setting of 80 Watt for 3×15 s. The sonicated solution was then centrifuged at 6,500×g for 7 min. The supernatant fraction was kept on ice and the remaining pellet resuspended and sonicated again. The sonicated solution was centrifuged as before and the supernatant removed from the second centrifugation step combined with that from the first centrifrugation. The combined supernatant was recentrifitged at 108,000×g for 1 h. The pellet of SMPs was resuspended in 5 ml of 20 mM KH2PO4 pH 7.4 and stored frozen at −20° C. until used.
Measurement of mitochondrial complex II and complex I activity. A time course for the reduction of the complex II substrate 2,6-dichlorophenol indophenol (DCIP) by the mitochondrial preparations was followed by measuring the absorbance at 600 nm in 1 cm cuvettes containing a 1 ml reaction volume (ε600=21×10^3 M^−1cm^−1). The reaction components included NADH, 0.5 mM; succinate, 5 mM; KCN, 10 mM; DCIP, 50 μM; PMS, 50 μM. […] The change in absorbance of DCIP was measured using a spectrophotometer (UVIKON XL, Secomam) and replicate samples were assayed (n=3). […]

pIC50: −log10 of the molar value.

T2 sequence (P21913 31-282): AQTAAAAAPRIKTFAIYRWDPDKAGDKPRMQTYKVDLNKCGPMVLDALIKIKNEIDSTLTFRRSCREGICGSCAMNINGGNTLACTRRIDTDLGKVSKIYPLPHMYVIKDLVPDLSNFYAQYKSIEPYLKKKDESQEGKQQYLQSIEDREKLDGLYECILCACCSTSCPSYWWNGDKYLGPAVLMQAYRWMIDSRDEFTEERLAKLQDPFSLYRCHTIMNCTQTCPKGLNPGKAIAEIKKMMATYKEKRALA
T2 sequence (Q641Z9 30-169 limits assumed): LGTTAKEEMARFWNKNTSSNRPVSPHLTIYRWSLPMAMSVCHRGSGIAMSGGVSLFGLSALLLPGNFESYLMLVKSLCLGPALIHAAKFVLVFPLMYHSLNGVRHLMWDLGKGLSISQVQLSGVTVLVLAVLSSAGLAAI
T2 sequence (Q6PCT8 57-159): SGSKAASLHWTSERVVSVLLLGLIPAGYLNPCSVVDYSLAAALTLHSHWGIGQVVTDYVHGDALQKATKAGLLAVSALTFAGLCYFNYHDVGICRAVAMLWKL
T2 sequence (Q920L2 35-656 partner): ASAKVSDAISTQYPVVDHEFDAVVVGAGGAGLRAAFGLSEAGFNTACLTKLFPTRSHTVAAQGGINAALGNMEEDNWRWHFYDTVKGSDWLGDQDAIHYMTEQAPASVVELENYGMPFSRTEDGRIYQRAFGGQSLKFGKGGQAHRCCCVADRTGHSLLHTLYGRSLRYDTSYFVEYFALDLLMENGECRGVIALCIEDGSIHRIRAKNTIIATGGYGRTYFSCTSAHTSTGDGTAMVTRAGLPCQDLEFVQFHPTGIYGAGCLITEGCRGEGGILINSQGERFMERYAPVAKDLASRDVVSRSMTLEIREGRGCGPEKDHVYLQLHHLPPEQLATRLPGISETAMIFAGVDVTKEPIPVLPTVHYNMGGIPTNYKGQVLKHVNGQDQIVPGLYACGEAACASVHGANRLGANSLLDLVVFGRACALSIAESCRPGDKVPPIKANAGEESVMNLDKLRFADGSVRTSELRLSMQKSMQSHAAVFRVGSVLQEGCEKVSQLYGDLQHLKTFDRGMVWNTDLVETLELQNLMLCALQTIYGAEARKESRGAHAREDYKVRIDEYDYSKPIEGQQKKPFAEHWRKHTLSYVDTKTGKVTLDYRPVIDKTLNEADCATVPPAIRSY

As a reminder, the pIC50 is the IC50 on a negative log10 scale, so that one unit is a factor of ten. For the molecule `Cc1c(C)c2c(c(C)c1OC(=O)CCC(=O)O)CC[C@@](C)(CCC[C@H](C)CCC[C@H](C)CCCC(C)C)O2` [Compound 1, α-tocopheryl succinate], in experiment [1], the “cellular ATP levels” value was “only significantly reduced cellular ATP levels when applied at the higher concentration of 50 μM”. Moreover, the “rate of reduction of DCIP (SDH/Complex II activity)” value is “decreased rapidly and significantly after treatment with α-TOS” in experiment [2]; “decreased rapidly and significantly after treatment with α-TOS” in experiment [4]. Besides, the “pro-apoptotic activity” value in experiment [3] (compared with α-TOS and isomers) was “highest apoptogenic activity”. Further, the pIC50 in experiment [3] (Jurkat, HBT11, MCF7, MCF7-C3, 2003) is 4.37. The “apoptosis after CybL siRNA” value in the experiment with MCF-7 cells (MCF7 cells treated with siRNA against CybL) is listed as “reduced the levels of apoptosis mediated by α-TOS”. Moreover, the apoptosis entry with MCF-7 cells (MCF-7 (erbB2-low), 24 h, normoxia or hypoxia) was “sensitive to apoptosis induced by α-TOS under both normoxia and hypoxia”.
